Source: the supplement of paper PMC7224384

Assays:
MDA-MB-453 [1] = assay: drug sensitivity score (DSS), in combination with BLU9931 (DSS (weighted AUC score)); higher = more sensitive (stronger viability decrease); extreme values may be limits of the assay; conditions: BLU9931 100 nM; 72 h
Procedure, shortened: (§1)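 Cells of the MDA-MB-453 line (2000 per well) were added in medium, with or without 100 nM final FGFR4 inhibitor, to 384-well plates predispensed with FIMM Oncology set compounds at five 10-fold dilutions covering a 10,000-fold range. After 72 h at 37 °C, 5% CO2, CellTiterGlo 2.0 read cellular ATP. Percent viability came from per-plate normalisation to control wells, and the drug sensitivity score was defined as a weighted area under a four-parameter logistic fit.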

MDA-MB-453 [2] = assay: drug sensitivity score (DSS), single agent (DSS (weighted AUC score)); higher = more sensitive (stronger viability decrease); extreme values may be limits of the assay; conditions: BLU9931 0 nM; 72 h
Procedure, shortened: as §1

CCCS(=O)(=O)Nc1ccc(F)c(C(=O)c2c[nH]c3ncc(-c4ccc(Cl)cc4)cc23)c1F [Vemurafenib]
drug sensitivity score (MDA-MB-453 [1]): 0
drug sensitivity score (MDA-MB-453 [2]): 0

CC1(C)CCC(CN2CCN(c3ccc(C(=O)NS(=O)(=O)c4ccc(NCC5CCOCC5)c([N+](=O)[O-])c4)c(Oc4cnc5[nH]ccc5c4)c3)CC2)=C(c2ccc(Cl)cc2)C1 [Venetoclax]
drug sensitivity score (MDA-MB-453 [1]): 0
drug sensitivity score (MDA-MB-453 [2]): 0

O=C(/C=C\n1cnc(-c2cc(C(F)(F)F)cc(C(F)(F)F)c2)n1)NNc1ccccn1 [Verdinexor]
drug sensitivity score (MDA-MB-453 [1]): 4.9
drug sensitivity score (MDA-MB-453 [2]): 4.7

CCCCOc1nc(N)c2c(n1)N(Cc1cccc(CN3CCCC3)c1)CC(=O)N2 [Vesatolimod]
drug sensitivity score (MDA-MB-453 [1]): 0
drug sensitivity score (MDA-MB-453 [2]): 3

COc1cccc(-c2ccc(NC(=O)C3=C(C(=O)O)CCC3)c(F)c2)c1 [Vidofludimus]
drug sensitivity score (MDA-MB-453 [1]): 0
drug sensitivity score (MDA-MB-453 [2]): 0.4

CC[C@]1(O)C[C@@H]2CN(CCc3c([nH]c4ccccc34)[C@@](C(=O)OC)(c3cc4c(cc3OC)N(C)[C@H]3[C@@](O)(C(=O)OC)[C@H](OC(C)=O)[C@]5(CC)C=CCN6CC[C@]43[C@@H]65)C2)C1 [Vinblastine]
drug sensitivity score (MDA-MB-453 [1]): 8.4
drug sensitivity score (MDA-MB-453 [2]): 10

CC[C@]1(O)C[C@H]2CN(CCc3c([nH]c4ccccc34)[C@@](C(=O)OC)(c3cc4c(cc3OC)N(C=O)[C@H]3[C@@](O)(C(=O)OC)[C@H](OC(C)=O)[C@]5(CC)C=CCN6CC[C@]43[C@@H]65)C2)C1 [Vincristine]
drug sensitivity score (MDA-MB-453 [1]): 8.1
drug sensitivity score (MDA-MB-453 [2]): 14.1

CC[C@]12C=CCN3CC[C@@]4(c5cc([C@@]6(C(=O)OC)C[C@@H]7C[C@@H](C(C)(F)F)CN(Cc8c6[nH]c6ccccc86)C7)c(OC)cc5N(C)[C@H]4[C@@](O)(C(=O)OC)[C@@H]1OC(C)=O)[C@@H]32 [Vinflunine]
drug sensitivity score (MDA-MB-453 [1]): 1.3
drug sensitivity score (MDA-MB-453 [2]): 2.6

CCC1=C[C@@H]2CN(C1)Cc1c([nH]c3ccccc13)[C@@](C(=O)OC)(c1cc3c(cc1OC)N(C)[C@H]1[C@@](O)(C(=O)OC)[C@H](OC(C)=O)[C@]4(CC)C=CCN5CC[C@]31[C@@H]54)C2 [Vinorelbine]
drug sensitivity score (MDA-MB-453 [1]): 19
drug sensitivity score (MDA-MB-453 [2]): 23.2

CS(=O)(=O)c1ccc(C(=O)Nc2ccc(Cl)c(-c3ccccn3)c2)c(Cl)c1 [Vismodegib]
drug sensitivity score (MDA-MB-453 [1]): 0
drug sensitivity score (MDA-MB-453 [2]): 0

CNC(=O)c1cccc(-c2ccc3c(N4CCOC[C@@H]4C)nc(N4CCOC[C@@H]4C)nc3n2)c1 [Vistusertib]
drug sensitivity score (MDA-MB-453 [1]): 16.9
drug sensitivity score (MDA-MB-453 [2]): 16.3

CC[C@@H]1C(=O)N(C)c2cnc(Nc3ccc(C(=O)N[C@H]4CC[C@H](N5CCN(CC6CC6)CC5)CC4)cc3OC)nc2N1C(C)C [Volasertib]
drug sensitivity score (MDA-MB-453 [1]): 7.8
drug sensitivity score (MDA-MB-453 [2]): 10.5

O=C(CCCCCCC(=O)Nc1ccccc1)NO [Vorinostat]
drug sensitivity score (MDA-MB-453 [1]): 15.6
drug sensitivity score (MDA-MB-453 [2]): 16.4

Oc1nc(-c2ccc(C(F)(F)F)cc2)nc2c1CSCC2 [XAV-939]
drug sensitivity score (MDA-MB-453 [1]): 0.1
drug sensitivity score (MDA-MB-453 [2]): 0.2

FC(F)c1nc2ccccc2n1-c1nc(N2CCOCC2)nc(N2CCOCC2)n1 [ZSTK474]
drug sensitivity score (MDA-MB-453 [1]): 15.6
drug sensitivity score (MDA-MB-453 [2]): 14.9

Cc1sc2c(c1C)C(c1ccc(Cl)cc1)=N[C@@H](CC(=O)NCCCCNC(=O)COc1cccc3c1C(=O)N(C1CCC(=O)NC1=O)C3=O)c1nnc(C)n1-2 (some centres not stated) [dBET1]
drug sensitivity score (MDA-MB-453 [1]): 13.2
drug sensitivity score (MDA-MB-453 [2]): 12.2
